Legend:
[1] = test system: daf-16; test: Daf-16 localization assay in C. elegans TJ356; assay type: in vivo
Experimental: In this experiment, transgenic worms TJ356 (Daf-16::GFP) are employed to study our target substance affects the localization of daf-1 6. After 24 h treatment, worms were transferred to a glass slide and paralyzed with 10 mM sodium azide. BZ9000 fluorescence microscope was used to observe the localization of daf-1 6. In each sample, around 50 worms were scored for three localization patterns: cytoplasmic, intermediate and nuclear.

[2] = test system: OCT4-promoter; test: Luciferase reporter assay in HEK-OCT4 cells; assay type: cell-based; conditions: HEK-OCT4, NCCIT-OCT4 and NCCIT-NANOG
Experimental: In an effort to find such chemical structures able to induce pluripotency, a high-throughput screening (HTS) was performed. The screen was based on cellular luciferase reporter assays under the control of the promoter activity of a pluripotency-associated transcription factor (Oct4) in HEK293 cells.
(§1) The inventors adopted Hantzsch thiazole synthesis (FIG. 20A) and produced a series of new O4I2-ester derivatives (FIG. 20B). Their activities were measured in three luciferase report cell lines, namely HEK-OCT4, driven by the activation of OCT4-promoter, and NCCIT-OCT4 and NCCIT-NANOG, whose intensities are controlled by endogenous OCT4 and NANOG respectively. […] Carboxylesterase 1 (CES1) is an enzyme majorly contributing to ester-to-acid conversion.

[3] = test system: C. elegans; test: C. elegans survival assay under oxidative stress (juglone); assay type: in vivo
Experimental: Eggs were released by lysing gravid adults with bleaching for 10 min. Resuspended eggs in sterile M9 buffer and incubated at 20° C. for 16-18 h. After all the worms were synchronized at the same L1 larval stage, transferred them into the liquid S-media which contents E. coli OP50 (0D600=0.8-1.2). Then, synchronized worms were treated with DMSO, 50 μg/ml epigallocatechin gallate (EGCG) or O4I4 (5 μM, 10 μM, and 20 μM) for further experiments.
After 48 h treatment, around 60 wild-type C. elegans (N2) worms in each sample were transferred into a new liquid S-media which contains 80 μM of superoxide-generating compound juglone (5-hydroxy-1,4-naphthalenedione) for 24 h. If a worm has response via a gentle touch with platinum wire, it is considered as a live worm. Conversely, a dead worm was considered by no response. The function of the survival rate is shown below.

[4] = test system: Oct4; test: Immunoblotting of OCT4 protein in human primary fibroblasts; assay type: cell-based
Experimental: In human primary fibroblasts, O4I4 promoted the expression of pluripotency-associated genes, including OCT4, SOX2, NANOG, LIN28, E-CADHERIN, REX1 and SALL4. […] FACS analysis further confirmed the O4I4-mediated induction of OCT4 and E-CADHERIN.
iPSCs were lysed using urea-lysis buffer (1 mM EDTA, 0.5% Triton X-100, 5 mM NaF, 6 M Urea, 1 mM Na3VO4, 10 μg/mL Pepstatin, 100 μM PMSF and 3 μg/mL Aprotinin in PBS). Enhanced chemiluminescence (ECL) immunoblot analysis was performed. 40 μg of total protein was resolved on 12% SDS-PAGE gels and immunoblotted with antibodies. […] antibody was used as loading control. Primary antibodies were incubated at 1:1000 dilution in TBS (pH 7.5) with 0.1% Tween-20 and 5% BSA/milk with gentle agitation overnight at 4° C. Secondary antibodies (Dianova, Germany) were incubated in TBS (pH 7.5) with 5% Milk and 0.1% Tween-20 at a 1:10,000 dilution for 1 h at room temperature.

[5] = test system: C. elegans; test: C. elegans lifespan assay; assay type: in vivo; conditions: 0.5 μM
Experimental: O4I4 (0.5 μM) were continuously added in medium until all the worms die. During the experiment period, every two days or three days, worms were counted either live or die by responding to a gentle touch with a platinum wire.

[6] = Expression of pluripotency genes in unmodified NCCIT cells; assay type: cell-based, human
Description: Consistently, in unmodified NCCIT cells O4I4 forced the expression of OCT4 (3-fold increase as compared to 0.1% DMSO treatment) and NANOG (30-fold increase) as well as other pluripotency-related genes, like E-CADHERIN, SOX2, REX1 and STAT3, 0414-mediated enrichment of OCT4 and NANOG, as well as SOX2 and E-CADHERIN, was also detected by fluorescence-activated cell sorting. […] It was reported that removal of bFGF led to the loss of pluripotency-marker expression in hPSCs, including OCT4, SOX2, E-CADHERIN and NANOG, which however was rescued in the presence of O4I4 (FIG. 21A), indicating a positive function of O4I4 in maintaining the pluripotency-associated transcriptional circuitry in hPSC.
Quantitative reverse-transcription real-time-PCR was performed using a Light Cycler 96 (Roche, Germany) following the manufacturer's protocol. Briefly, total RNA was isolated from cells using TRIzol (Qiagen, Germany) or NucleoSpin®RNA Plus (Macherey-Nagel, Germany). The same amount of RNA was used to reverse-transcriptional synthesize cDNA by using random primers ProtoScript® First Strand cDNA Synthesis Kit (NEB, Germany). qPCR was performed using the SYBR Green PCR master mix (qPCRBIO SyGreen Mix Lo-Rox, Nippon Genetics, Germany) and the primer pairs indicated below (MWG, Eurofins, Germany). Actin was used as an endogenous control. […]

[7] = Metabolic analysis of O4I2 incubated with NCCIT cells (HPLC, LC/MS); assay type: in vitro ADME, human; conditions: 24 hours, O4I2 50 μM
Experimental: as §1
NCCIT cells were treated with O4I2 (50 μM) in RPMI 1640 medium containing 2% BSA/FBS. Medium and cells were collected. Cell pellet was solved in 0.1% Triton-x. Protein precipitated by adding MeOH (pH=2) in lysate supernatant on ice for 2 h. Metabolites were extracted from the combined supernatant with ethyl acetate. After removal of organic solvent, residue was dissolved in acetonitrile, frozen immediately in liquid N2 and stored in −80° C. until further analysis.
Samples obtained after purification were diluted to contain 20% MeOH. 100 μL of the sample was transferred to an HPLC vial and placed in the autosampler of an Agilent 1200 series HPLC machine. Sample (20 μL) was injected into the system and metabolites were separated on a C18 column (Kinetex 2.6 μm, C18, 100 Å, dimensions 100×2.1 mm, Phenomenex, Aschaffenburg, Germany). […]

[8] = test system: KDM5; test: KDM5 demethylase inhibition, whole-cell nuclear extraction; assay type: biochemical; conditions: micromolar concentrations
Description: (§2) HMT and HDM are two major classes of enzymes, contributing to the regulation of histone methylation. Lysine-specific demethylase 1 (LSD1) and histone lysine demethylase 5 (KDM5, also known as JARID1) majorly catalyze demethylation of H3K4. A few KDM5 chemical inhibitors have been reported to inhibit demethylation of H3K4, leading to an increase of global methylated H3K4 in various cell types. The inventors tested the inhibitory effect of O4I3 on LSD1 and KDM5. KDM4 (also known as JMJD2), the HDM of H3K9 and H3K36, was also included.
(§3) Epiquik histone demethylase (H3K4 specific) activity/inhibition assay kit (Epigentek, Biocat, Germany) was used to measure the protective effect of O4I3 and zolpidem on the methylation of H3K4. Their inhibitory effects on LSD1, KDM5s, and KDM4 were determined using Epigenase jarid demethylase activity/inhibition assay kit, Epigenase JMJD2 demethylase activity/inhibition assay kit and EpiQuik histone demethylase LSD1 activity/inhibition assay kit (Epigentek, Biocat, Germany). The total nuclear extraction was used according to manufacturer's instructions. For measuring KDM5A, KDM5B, KDM5C, and KDM5D activity, magnetic beads were used to immunoprecipitate the respective enzymes from 10^8 cells according to the manufacturer's instructions (Cell Signaling Technologies).

[9] = test system: Oct4; test: Luciferase reporter assay in NCCIT-Oct4 cells; assay type: cell-based, human; conditions: 10 μM, 48 h
[10] = test system: Nanog; test: Luciferase reporter assay in NCCIT-Nanog cells; assay type: cell-based, human; conditions: 10 μM, 48 h
Experimental: It is known in the art that Nanog is a direct target of Oct4 and can be activated by other Oct4 inducing compounds. […] At higher concentrations of O4I3 (FIGS. 1B and 1C) less activity was observed. Moreover, the activity of zolpidem (N,N-Dimethyl-2-(6-methyl-2-p-tolylimidazo[1,2-a]pyridin-3-yl)acetamid) (100) containing a similar backbone to O4I3 was tested in both reporter cell lines. An approximate 2-fold induction at 10 μM was detected (FIG. 8 and FIG. 9).
Luciferase reporter assay was performed using Beatle Juice Kit (PJK, Germany) according to the manufacturer's instruction. NCCIT-Oct and NCCIT-Nanog reporter cells were plated into a 24-well plate (100,000 cells/well) for 24 h. Cells were treated with compounds as indicated and harvested with luciferase lysis buffer (25 mM Tris phosphate buffer pH=7.8, 4 mM EGTA, 1% Triton X-100, 10% glycerol and 2 mM fresh DTT, filtered through 0.45 μm sterile filter) at 37° C. for 15 min. The protein concentration was determined by Bradford assay (Sigma, Germany). 100 μL reaction mixture containing luciferin and ATP was added to 20 μL cell lysis in a white plate (Gibco, Germany), incubated for 5 min and measured by a luminometer plate-reader. The activity was determined as percent luminous intensity of treated cells over control cells from at least five-independent experiments.

[11] = test system: methylated H3K4; test: In vitro H3K4 methylation assay (Epiquik histone demethylase H3K4 specific kit); assay type: biochemical; conditions: micromolar concentrations
Experimental: as §3

[12] = test system: hiPSCs; test: iPSC single cell expansion, viability by MTT assay; assay type: cell-based, human; conditions: much higher concentration and lower efficacy than O4I3
Experimental: Since O4I3 induced sustainable expression of Oct4 and Nanog, the inventors questioned if it supports iPSC self-renewal in single cell expansion. Therefore, the viability of iPSCs, after replating Accutase®-dissociated single iPSCs, was tested in the presence or absence of O4I3. Rocki (Y-27632) was used for the first 24 h to increase iPSCs survival. A nearly 300% higher viability in cells treated with O4I3 (1 nM) was observed. Using 50 nM of O4I3 even 400% increase was observed (FIG. 2A). FACS analysis confirmed homologous expression of iPSCs markers, Tra-1-81 and Oct4, for at least 30 passages (FIG. 2B).
iPSC single cell expansion was performed according to a well-established protocol known in the art (Watanabe et al, Nat Biotechnol, 2007, 25(6), 681-6). Briefly, iPSCs were dissociated with Accutase® as single cell suspension and re-seeded in a Geltrex-coated 96-well plate in the presence of Rock inhibitor for the first 24 h in combination with/without O4I3. Cell viability was performed in MTT assay as disclosed elsewhere (Cheng et al, Mol Oncol. 2016 June; 10(6):806-24).

[13] = test system: human fibroblasts; test: Episome-based reprogramming of human fibroblasts, AP+ / iPSC-like colonies; assay type: cell-based; conditions: 1 μM, lower efficiency
Experimental: O4I3 was applied in commercially available episome-based reprogramming cocktail containing episomal vectors for overexpression of Oct4, Sox2, Klf4, Lin28 and L-Myc, as well as suppression of p53. In comparison to non-treated fibroblast cultures, 20 times more alkaline phosphatase (AP) positive colonies were detected in the presence of O4I3 at a concentration of 50 nM in two tested human primary fibroblasts (HF1 and HF2) (FIG. 13).
It is known in the art that senescence or other unknown factors can confer donor fibroblasts resistance to reprogramming. Therefore, O4I3 was tested for its ability to enable reprogramming of refractory fibroblasts. Two human fibroblasts were selected. HFF-LTR7-EGFP at passage >40 carrying EGFP driven by a LTR7 promoter, which was activated during reprogramming, and HF5, isolated from a patient sample, both of which were resistant to an episome-based reprogramming approach (FIG. 13).
Epi5® Episomal iPSC Reprogramming Kit (Life technologies) was used to reprogram human fibroblasts according to the manufacturer's protocol. Briefly, 5,000-50,000 cells were seeded in a 24-well plate for 24 h and then transfected with episomal vectors in N2 B27 medium. After 14 days, cells were re-suspended with 0.5 mM EDTA and re-plated in a 6-well plate in Essential®8 medium. Colonies were isolated after 3-4 weeks with the help of alkaline phosphatase (AP) live stain (Life technologies). Medium was refreshed daily.

[14] = test system: T1, KDM4; test: KDM4 (JMJD2) demethylase inhibition, nuclear extraction; assay type: biochemical; conditions: micromolar concentrations
T1 construct: other: whole-cell nuclear extraction; other: micromolar concentrations
Description: as §2, §3

Cc1cccc(Nc2nc(C(C)(C)C)cs2)c1C [O4I4]
localization of daf-16 [1]: nucleic translocation | activity in three luciferase reporter cell lines [2]: among the most active compounds | survival ratio under oxidative stress [3]: increased survival ratio | OCT4 protein [4]: dose-dependent increase | lifespan [5]: life extension | expression of NANOG, increase as compared to 0.1% DMSO treatment [6]: 30 fold | expression of OCT4, increase as compared to 0.1% DMSO treatment [6]: 3 fold

CCOC(=O)c1csc(Nc2ccc(Cl)cc2)n1 [O4I2]
metabolic conversion in cells [7]: occurrence of ester-to-acid conversion

Cc1ccc(-c2nc3ccc(C)cn3c2CC(=O)N(C)C)cc1 [zolpidem, N,N-dimethyl-2-(6-methyl-2-p-tolylimidazo[1,2-a]pyridin-3-yl)acetamid, reference compound]
inhibition of KDM5 [8]: inhibited | induction in NCCIT-Oct4 reporter cells [9]: ~2 fold | induction in NCCIT-Nanog reporter cells [10]: ~2 fold | protection of H3K4 methylation [11]: protected H3K4 methylation | maintenance of iPSCs [12]: sustained the maintenance of iPSCs | reprogramming of resistant fibroblasts [13]: facilitated the reprogramming of resistant fibroblasts | inhibition of KDM4 [14]: inhibited

Reference: patent publication US20200062719A1, “Application of Imidazopyridine Derivatives in Regenerative Medicine” (University of Heidelberg, priority 2018, published 2020)
